Experimental data reported in ChEMBL document CHEMBL1938324 (Bioorg Med Chem Lett, 2012).
Residue numbers refer to the chain shown, from its start. Active and inactive are the calls of the source. The calls are words filed in the database; no cut-off is given here.

Columns and labels:
[1] = target: T1, Muscarinic acetylcholine receptor M1 (Homo sapiens, UniProt P11229); experiment: Antagonist activity at human muscarinic M1 receptor expressed in CHO cells assessed as inhibition of acetylcholine-induced calcium mobilization by fluorescence assay; type: functional, cell-based
T1 sequence (P11229 whole entry): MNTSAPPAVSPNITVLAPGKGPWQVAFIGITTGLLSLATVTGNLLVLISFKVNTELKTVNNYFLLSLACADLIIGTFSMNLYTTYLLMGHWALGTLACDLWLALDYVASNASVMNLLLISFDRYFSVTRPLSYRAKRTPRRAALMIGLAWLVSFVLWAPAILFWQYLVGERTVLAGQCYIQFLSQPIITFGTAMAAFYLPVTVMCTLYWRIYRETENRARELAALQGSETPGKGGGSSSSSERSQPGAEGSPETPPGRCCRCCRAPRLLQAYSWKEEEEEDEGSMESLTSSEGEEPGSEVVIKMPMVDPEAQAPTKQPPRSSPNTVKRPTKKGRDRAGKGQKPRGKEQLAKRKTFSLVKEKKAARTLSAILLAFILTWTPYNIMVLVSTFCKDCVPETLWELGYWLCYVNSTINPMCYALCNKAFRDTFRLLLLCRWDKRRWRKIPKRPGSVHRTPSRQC

[2] = target: T2, Muscarinic acetylcholine receptor M1 (Homo sapiens) (UniProt P11229); experiment: Inhibition of human muscarinic M1 receptor expressed in CHO cells assessed as inhibition of acetylcholine-induced calcium mobilization at 30 uM by fluorescence assay; type: functional, cell-based
T2 sequence (whole entry): T1 sequence (P11229 whole entry)

[3] = target: T2, Muscarinic acetylcholine receptor M1 (Homo sapiens); experiment: Antagonist activity at human muscarinic M1 receptor expressed in CHO cells assessed as residual activity at 30 uM by fluorescence assay; type: functional, cell-based
[4] = target: T2, Muscarinic acetylcholine receptor M1 (Homo sapiens); experiment: Ratio of ML012 IC50 to compound IC50 for human muscarinic M1 receptor
[5] = target: T3, Muscarinic acetylcholine receptor M1 (Rattus norvegicus, UniProt P08482); experiment: Antagonist activity at rat muscarinic M1 receptor expressed in CHO cells assessed as inhibition of acetylcholine-induced calcium mobilization by fluorescence assay; type: functional, cell-based
T3 sequence (P08482 whole entry): T1 sequence (P11229 whole entry) with A5V, T254S, P309S, R320K, A337G, I413V

[6] = Clearance in iv dosed Sprague-Dawley rat; type: ADME, organism-based; details: in vivo
[7] = target: T4, Muscarinic acetylcholine receptor M4 (Homo sapiens, UniProt P08173); experiment: Antagonist activity at human muscarinic M4 receptor expressed in CHO cells assessed as inhibition of acetylcholine-induced calcium mobilization by fluorescence assay; type: functional, cell-based
T4 sequence (P08173 whole entry): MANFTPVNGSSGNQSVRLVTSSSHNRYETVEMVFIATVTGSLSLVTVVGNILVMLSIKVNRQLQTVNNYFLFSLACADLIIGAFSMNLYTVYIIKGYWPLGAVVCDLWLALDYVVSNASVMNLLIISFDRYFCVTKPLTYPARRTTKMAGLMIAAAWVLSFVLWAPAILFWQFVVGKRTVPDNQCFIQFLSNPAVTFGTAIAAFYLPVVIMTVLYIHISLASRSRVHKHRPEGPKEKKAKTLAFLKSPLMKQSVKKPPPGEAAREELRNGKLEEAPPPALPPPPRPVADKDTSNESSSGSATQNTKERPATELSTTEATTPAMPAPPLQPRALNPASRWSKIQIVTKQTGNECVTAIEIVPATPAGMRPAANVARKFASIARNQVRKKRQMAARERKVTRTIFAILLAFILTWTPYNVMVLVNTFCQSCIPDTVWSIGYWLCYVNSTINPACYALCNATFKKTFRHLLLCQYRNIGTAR

[8] = target: T5, Muscarinic acetylcholine receptor M5 (Homo sapiens, UniProt P08912); experiment: Antagonist activity at human muscarinic M5 receptor expressed in CHO cells assessed as inhibition of acetylcholine-induced calcium mobilization by fluorescence assay; type: functional, cell-based
T5 sequence (P08912 whole entry): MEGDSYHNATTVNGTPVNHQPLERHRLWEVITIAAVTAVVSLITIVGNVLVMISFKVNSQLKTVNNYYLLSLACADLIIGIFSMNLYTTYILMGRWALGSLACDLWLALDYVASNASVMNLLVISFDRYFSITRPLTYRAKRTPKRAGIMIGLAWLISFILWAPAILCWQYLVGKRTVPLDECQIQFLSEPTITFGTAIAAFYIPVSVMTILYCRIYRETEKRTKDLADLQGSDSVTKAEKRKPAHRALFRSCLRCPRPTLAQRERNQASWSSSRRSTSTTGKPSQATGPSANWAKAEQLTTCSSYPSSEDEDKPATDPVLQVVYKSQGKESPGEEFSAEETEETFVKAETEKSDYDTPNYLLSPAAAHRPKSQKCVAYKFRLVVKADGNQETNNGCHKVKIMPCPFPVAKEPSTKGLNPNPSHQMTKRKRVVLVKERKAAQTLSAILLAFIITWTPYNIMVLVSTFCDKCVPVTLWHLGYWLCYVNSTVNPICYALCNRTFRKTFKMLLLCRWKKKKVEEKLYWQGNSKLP

[9] = target: Muscarinic acetylcholine receptor M3 (Homo sapiens, UniProt P20309); experiment: Antagonist activity at human muscarinic M3 receptor expressed in CHO cells assessed as inhibition of acetylcholine-induced calcium mobilization by fluorescence assay; type: functional, cell-based
Chain of Muscarinic acetylcholine receptor M3 (P20309 whole entry): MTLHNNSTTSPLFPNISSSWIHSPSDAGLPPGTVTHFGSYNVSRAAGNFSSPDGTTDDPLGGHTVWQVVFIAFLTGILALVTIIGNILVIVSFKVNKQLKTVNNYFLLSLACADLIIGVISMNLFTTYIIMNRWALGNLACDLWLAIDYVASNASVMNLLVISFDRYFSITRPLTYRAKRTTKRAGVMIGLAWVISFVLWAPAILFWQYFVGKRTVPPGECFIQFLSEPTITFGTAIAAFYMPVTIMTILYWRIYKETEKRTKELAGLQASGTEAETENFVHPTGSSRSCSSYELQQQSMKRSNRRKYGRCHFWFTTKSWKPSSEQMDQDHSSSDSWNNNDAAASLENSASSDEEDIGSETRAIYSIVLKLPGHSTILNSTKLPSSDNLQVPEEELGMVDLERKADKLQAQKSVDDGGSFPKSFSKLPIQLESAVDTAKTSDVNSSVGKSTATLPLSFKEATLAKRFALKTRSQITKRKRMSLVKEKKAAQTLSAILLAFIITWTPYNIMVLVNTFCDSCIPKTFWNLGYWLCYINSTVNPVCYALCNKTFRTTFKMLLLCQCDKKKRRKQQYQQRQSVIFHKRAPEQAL

[10] = Oral bioavailability in Sprague-Dawley rat at 10 mg/kg; type: ADME, organism-based; details: in vivo
[11] = target: T6, Muscarinic acetylcholine receptor M2 (Homo sapiens, UniProt P08172); experiment: Antagonist activity at human muscarinic M2 receptor expressed in CHO cells assessed as inhibition of acetylcholine-induced calcium mobilization by fluorescence assay; type: functional, cell-based
T6 sequence (P08172 whole entry): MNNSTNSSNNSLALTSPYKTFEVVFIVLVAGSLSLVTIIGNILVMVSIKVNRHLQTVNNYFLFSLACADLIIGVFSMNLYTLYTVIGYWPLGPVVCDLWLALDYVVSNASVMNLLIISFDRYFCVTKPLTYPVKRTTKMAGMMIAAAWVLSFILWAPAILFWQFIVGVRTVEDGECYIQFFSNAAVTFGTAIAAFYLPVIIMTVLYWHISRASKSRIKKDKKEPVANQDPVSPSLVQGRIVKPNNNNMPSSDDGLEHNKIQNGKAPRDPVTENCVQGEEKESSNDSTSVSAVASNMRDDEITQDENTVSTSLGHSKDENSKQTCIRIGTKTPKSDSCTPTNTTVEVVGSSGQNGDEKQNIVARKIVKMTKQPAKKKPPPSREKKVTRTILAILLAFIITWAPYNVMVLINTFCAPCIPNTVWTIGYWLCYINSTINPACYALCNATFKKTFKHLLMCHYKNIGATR

Rattus norvegicus = experiment: Half life in iv dosed Sprague-Dawley rat; type: ADME, organism-based; details: in vivo

Row | Compound | IC50 [1] | other results
1 | O=C(CCNS(=O)(=O)c1cccc2nsnc12)N1CCN(c2nc3ccccc3s2)CC1 | > 10 µM | 
2 | O=C(CCNS(=O)(=O)c1cccc2nsnc12)N1CCN(c2cccc(F)n2)CC1 | > 10 µM | 
3 | O=C(CCNS(=O)(=O)c1cccc2nsnc12)N1CCN(c2ncc(Cl)cn2)CC1 | > 10 µM | 
4 | C[C@@H](CC(=O)N1CCN(c2ccncc2)CC1)NS(=O)(=O)c1cccc2nonc12 |  | inhibition [2]: 30%
5 | O=C(C(F)CNS(=O)(=O)c1cccc2nonc12)N1CCN(c2ccncc2)CC1 (racemic) |  | Activity [3]: 25%
6 | O=C(CCNS(=O)(=O)c1cccc2nsnc12)N1CCN(c2cccc(Cl)n2)CC1 | > 10 µM | 
7 | O=C(CCNS(=O)(=O)c1cccc2ncccc12)N1CCN(c2ccc(Br)cn2)CC1 | 2.1 µM | 
8 | O=C(CCNS(=O)(=O)c1c(Cl)ccc2nonc12)N1CCN(c2ccc(Br)cn2)CC1 | > 10 µM | 
9 | COc1cccc(S(=O)(=O)NCCC(=O)N2CCN(c3ccc(Br)cn3)CC2)c1 | > 10 µM | 
10 | CC(=O)Nc1nc(C)c(S(=O)(=O)NCCC(=O)N2CCN(c3ccc(Br)cn3)CC2)s1 | > 10 µM | 
11 | Cc1ccnc(N2CCN(C(=O)CCNS(=O)(=O)c3cccc4nsnc34)CC2)c1 | > 10 µM | 
12 | O=C(CCNS(=O)(=O)c1cccc2nsnc12)N1CCN(c2ccc(Br)cn2)CC1 | 0.32 µM | Ratio IC50 [4]: 2
13 | O=C(CCNS(=O)(=O)c1cccc2ccccc12)N1CCN(c2ccc(Br)cn2)CC1 | > 10 µM | 
14 | O=C(CCNS(=O)(=O)c1cccc2nsnc12)N1CCN(c2nccs2)CC1 | > 10 µM | 
15 | O=C(CCNS(=O)(=O)c1ccc(F)c2nonc12)N1CCN(c2ccc(Br)cn2)CC1 | 4.8 µM | 
16 | O=C(CCNS(=O)(=O)c1cccc2nsnc12)N1CCN(c2nc3ccccc3o2)CC1 | > 10 µM | 
17 | O=C(CCNS(=O)(=O)c1cccc2nsnc12)N1CCN(c2cc(Cl)ccn2)CC1 | 4.5 µM | 
18 | C[C@H](CC(=O)N1CCN(c2ccncc2)CC1)NS(=O)(=O)c1cccc2nonc12 |  | inhibition [2]: inactive
19 | O=C(CCNS(=O)(=O)c1cccc2cccnc12)N1CCN(c2ccc(Br)cn2)CC1 | > 10 µM | 

Second part, led by results:

Row | IC50 [1] | Compound | other results
20 | 1.1 µM | O=C(CCNS(=O)(=O)c1cccc2nonc12)N1CCN(c2ccc(Br)cn2)CC1 | 
21 | > 10 µM | Cc1ccc2nonc2c1S(=O)(=O)NCCC(=O)N1CCN(c2ccc(Br)cn2)CC1 | 
22 | > 10 µM | O=S(=O)(NCCCN1CCN(c2ccncc2)CC1)c1cccc2nsnc12 | Activity [3]: 17%
23 | > 10 µM | CN(CCC(=O)N1CCN(c2ccncc2)CC1)S(=O)(=O)c1cccc2nsnc12 | 
24 | > 10 µM | O=C(CCNS(=O)(=O)c1cccc2nsnc12)N1CCN(c2ccccn2)CC1 | 
25 | 0.69 µM | O=C(CCNS(=O)(=O)c1cccc2nsnc12)N1CCN(c2ccncc2)CC1 | IC50 [5]: 0.24 µM
26 | 2.6 µM | O=C(CCNS(=O)(=O)c1cccc2nonc12)N1CCN(c2ccncc2)CC1 | 
27 | > 10 µM | CN(C)c1cccc2c(S(=O)(=O)NCCC(=O)N3CCN(c4ccncc4)CC3)cccc12 | 
28 | > 10 µM | Cc1cccc(N2CCN(C(=O)CCNS(=O)(=O)c3cccc4nsnc34)CC2)n1 | 
29 | > 10 µM | Cc1ccc2nsnc2c1S(=O)(=O)NCCC(=O)N1CCN(c2ccncc2)CC1 | 
30 | 0.4 µM | O=C(CCNS(=O)(=O)c1cccc2ncccc12)N1CCN(c2ccncc2)CC1 | IC50 [5]: 0.18 µM; clearance [6]: 77 mL/min/kg; IC50 [7]: > 30 µM; IC50 [8]: > 30 µM; IC50 [9]: > 30 µM; bioavailability [10]: < 10%; IC50 [11]: > 30 µM; t1/2 (Rattus norvegicus): 40 min
31 | > 10 µM | O=C(CCNS(=O)(=O)c1cccnc1)N1CCN(c2ccncc2)CC1 | 
32 | > 10 µM | O=C(CCNS(=O)(=O)c1cccc(-n2cnnn2)c1)N1CCN(c2ccncc2)CC1 | 
33 | > 10 µM | O=C(CCNS(=O)(=O)c1cccc2nsnc12)N1CCN(c2ccnc(F)c2)CC1 | 
34 | > 10 µM | O=C(CCNS(=O)(=O)c1cccc2nsnc12)N1CCN(c2ncccn2)CC1 | 
35 | > 10 µM | O=C(CCNS(=O)(=O)c1ccc2nsnc2c1)N1CCN(c2ccncc2)CC1 | 
36 | 2 µM | Cc1cnccc1N1CCN(C(=O)CCNS(=O)(=O)c2cccc3nsnc23)CC1 | 
37 | > 10 µM | O=C(CCNS(=O)(=O)c1cccc2scnc12)N1CCN(c2ccncc2)CC1 | 
38 | > 10 µM | O=C(CCNS(=O)(=O)c1cccc2nsnc12)N1CCN(c2ccnc(Cl)c2)CC1 | 
39 | > 10 µM | Cc1ccc2nonc2c1S(=O)(=O)NCCC(=O)N1CCN(c2ccncc2)CC1 | 
